In ChEMBL document CHEMBL5625225, “Vinylphosphonate-based cyclic dinucleotides enhance STING-mediated cancer immunotherapy” (Eur J Med Chem, 2023):
Active and inactive are the calls of the source. The rule behind the calls is not given here.

Legend:
[1] = Induction of cytokine production in human PBMC cells assessed as IFN-alpha level incubated for 60 mins followed by washout and measured after 15 hrs; assay type: functional, cell-based
[2] = Induction of cytokine production in human PBMC cells assessed as IFN-gamma level incubated for 60 mins followed by washout and measured after 15 hrs; assay type: functional, cell-based
4T1 [3] = assay: Antitumor immunity against mouse 4T1 cells xenografted in BALB/c syngeneic mouse model assessed as tumor growth inhibition at 2 mg/kg, IT(Intratumoral) measured upto 22 days relative to control; assay type: functional; settings: 4T1, 528 h, time <= 22 day, read-out: TGI
[4] = Stability in human plasma assessed as half life at 5 uM measured upto 120 mins by UPLC/MS analysis; assay type: ADME, cell-free
[5] = Stability in mouse plasma assessed as half life at 5 uM measured upto 120 mins by UPLC/MS analysis; assay type: ADME, cell-free
[6] = Induction of cytokine production in human PBMC cells assessed as TNF-alpha level incubated for 60 mins followed by washout and measured after 15 hrs; assay type: functional, cell-based
4T1 [7] = assay: Antitumor immunity against mouse 4T1 cells xenografted in BALB/c syngeneic mouse model assessed as tumor growth inhibition at 0.67 mg/kg, IT(Intratumoral) measured upto 22 days relative to control; assay type: functional; settings: 4T1, 528 h, time <= 22 day, read-out: TGI
[8] = target: T1, Stimulator of interferon genes protein (Homo sapiens, UniProt Q86WV6); assay: Agonist activity at wild type STING (unknown origin) expressed in HEK293T cells preincubated for 30 mins followed by washout and measured after 6.5 hrs by Bright-glo luciferase assay; assay type: cell-based
Target sequence in this assay (Q86WV6 whole entry): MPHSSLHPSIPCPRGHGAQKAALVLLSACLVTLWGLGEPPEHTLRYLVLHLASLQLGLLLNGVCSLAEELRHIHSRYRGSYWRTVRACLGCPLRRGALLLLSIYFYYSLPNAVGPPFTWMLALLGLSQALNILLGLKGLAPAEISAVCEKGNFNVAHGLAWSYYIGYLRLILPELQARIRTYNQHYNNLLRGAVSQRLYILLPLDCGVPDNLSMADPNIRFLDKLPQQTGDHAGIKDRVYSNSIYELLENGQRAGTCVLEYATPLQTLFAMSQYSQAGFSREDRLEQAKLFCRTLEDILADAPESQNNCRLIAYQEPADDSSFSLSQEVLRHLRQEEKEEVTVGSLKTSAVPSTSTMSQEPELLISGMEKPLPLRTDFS

[9] = target: T1, Stimulator of interferon genes protein; assay: Agonist activity at wild type STING (unknown origin) expressed in HEK293T cells measured after 7 hrs by Bright-glo luciferase assay; assay type: cell-based
Target sequence in this assay (Q86WV6 whole entry): as above

[10] = Toxicity in BALB/c mouse assessed effect on body weight change at 0.22 to 2 mg/kg, IT(Intratumoral) measured upto 22 days; assay type: organism-based; settings: in vivo, other, 528 h, dose 0.22-2 mg/kg, time < 22 day
[11] = Toxicity in BALB/c mouse assessed effect on drug tolerance at 0.22 to 2 mg/kg, IT(Intratumoral) measured upto 22 days; assay type: organism-based; settings: in vivo, other, 528 h, dose 0.22-2 mg/kg, time < 22 day
[12] = Toxicity in BALB/c mouse assessed effect on animal survival at 0.22 to 2 mg/kg, IT(Intratumoral) measured upto 22 days; assay type: organism-based; settings: in vivo, other, 528 h, dose 0.22-2 mg/kg, time < 22 day
[13] = target: Stimulator of interferon genes protein (Homo sapiens, UniProt Q86WV6, G230A/R293Q); assay: Agonist activity at STING G230A/R293Q mutant (unknown origin) expressed in digitonin -permeabilized HEK293T cells preincubated for 30 mins followed by washout and measured after 5 hrs by Bright-glo luciferase assay; assay type: cell-based
[14] = Agonist activity at STING R232H mutant (unknown origin) expressed in digitonin -permeabilized HEK293T cells preincubated for 30 mins followed by washout and measured after 5 hrs by Bright-glo luciferase assay; assay type: cell-based; settings: Homo sapiens, HEK-293T
[15] = Toxicity in BALB/c mouse assessed effect on drug tolerance at 0.67 to 6 mg/kg, IT(Intratumoral) measured upto 22 days; assay type: organism-based; settings: in vivo, other, 528 h, dose 0.67-6 mg/kg, time < 22 day
[16] = target: Stimulator of interferon genes protein (Homo sapiens, UniProt Q86WV6, G230A/R293Q/R71H); assay: Agonist activity at STING R71H/G230A/R293Q mutant (unknown origin) expressed in digitonin -permeabilized HEK293T cells preincubated for 30 mins followed by washout and measured after 5 hrs by Bright-glo luciferase assay; assay type: cell-based
[17] = system: Stimulator of interferon genes protein (Homo sapiens), Q86WV6 [G230A,R293Q]; settings: filed as agonist
Description: Binding affinity to STING G230A/R293Q mutant (unknown origin) assessed as change in melting temperature by differential scanning fluorimetry analysis

[18] = target: Stimulator of interferon genes protein (Homo sapiens, UniProt Q86WV6, R293Q); assay: Agonist activity at STING R293Q mutant (unknown origin) expressed in digitonin -permeabilized HEK293T cells preincubated for 30 mins followed by washout and measured after 5 hrs by Bright-glo luciferase assay; assay type: cell-based
[19] = target: T1, Stimulator of interferon genes protein; assay: Agonist activity at STING R232 mutant (unknown origin) expressed in digitonin -permeabilized HEK293T cells preincubated for 30 mins followed by washout and measured after 5 hrs by Bright-glo luciferase assay; assay type: cell-based
Target sequence in this assay (Q86WV6 whole entry, looked up, stated change not applied): as the sequence (Q86WV6 whole entry) above

[20] = system: Stimulator of interferon genes protein (Homo sapiens), Q86WV6 [UNDEFINED MUTATION]; settings: filed as agonist
Description: Binding affinity to STING R232 mutant (unknown origin) assessed as change in melting temperature by differential scanning fluorimetry analysis

[21] = Toxicity in BALB/c mouse assessed effect on animal survival at 0.67 to 6 mg/kg, IT(Intratumoral) measured upto 22 days; assay type: organism-based; settings: in vivo, other, 528 h, dose 0.67-6 mg/kg, time < 22 day
[22] = Toxicity in BALB/c mouse assessed effect on body weight change at 0.67 to 6 mg/kg, IT(Intratumoral) measured upto 22 days; assay type: organism-based; settings: in vivo, other, 528 h, dose 0.67-6 mg/kg, time < 22 day
[23] = Toxicity in BALB/c mouse assessed body weight loss at 6 mg/kg, IT(Intratumoral) measured after 7 days relative to control; assay type: organism-based; settings: in vivo, other, 168 h, time 7 day
4T1 [24] = assay: Antitumor immunity against mouse 4T1 cells xenografted in BALB/c syngeneic mouse model assessed as reduction in tumor volume measured upto 22 days administered as IT(Intratumoral) dose; assay type: functional; settings: time <= 22.0 day
4T1 [25] = assay: Antitumor immunity against mouse 4T1 cells xenografted in BALB/c syngeneic mouse model assessed as increase in AH1positive CD8 T cell level at 2 mg/kg, IT(Intratumoral) measured upto 22 days; assay type: functional, organism-based; settings: time <= 22.0 day

Chain of Stimulator of interferon genes protein (Homo sapiens, UniProt Q86WV6, G230A/R293Q) (Q86WV6 whole entry G230A/R293Q): as the sequence (Q86WV6 whole entry) above, with G230A, R293Q counted along it
Chain of Stimulator of interferon genes protein (Homo sapiens), Q86WV6 [G230A,R293Q] (Q86WV6 whole entry G230A/R293Q): as the sequence (Q86WV6 whole entry) above, with G230A, R293Q counted along it
Chain of Stimulator of interferon genes protein (Homo sapiens), Q86WV6 [UNDEFINED MUTATION] (Q86WV6 whole entry, looked up, change not shown): as the sequence (Q86WV6 whole entry) above
Chain of Stimulator of interferon genes protein (Homo sapiens, UniProt Q86WV6, R293Q) (Q86WV6 whole entry R293Q): as the sequence (Q86WV6 whole entry) above, with R293Q counted along it
Chain of Stimulator of interferon genes protein (Homo sapiens, UniProt Q86WV6, G230A/R293Q/R71H) (Q86WV6 whole entry R71H/G230A/R293Q): as the sequence (Q86WV6 whole entry) above, with R71H, G230A, R293Q counted along it

Question: Which results are given for `CC1(C(=O)OCOP2(=O)/C=C/[C@H]3O[C@@H](n4cnc5c(N)ncnc54)[C@H](F)[C@@H]3OP(=O)(OCOC(=O)C3(C)CCCCC3)OC[C@H]3O[C@@H](n4cnc5c(N)ncnc54)[C@H](F)[C@@H]3O2)CCCCC1` (stereo in doubt; 14C) [listing 1 of 2 here]?
Answer: EC50 ([1]; pbmc): 110 nM; EC50 ([2]; pbmc): 70 nM; inhibition in vivo at 2 mg/kg (4T1 [3]): 80%; half-life at 5 µM [4]: 2.17 h; half-life at 5 µM [5]: 0.35 h; EC50 ([6]; pbmc): 60 nM; inhibition in vivo at 0.67 mg/kg (4T1 [7]): 70%; EC50 [8]: 30 nM; EC50 [9]: 13 nM; Activity [10]: Non-Toxic; Activity [11]: Non-Toxic; Activity [12]: Non-Toxic

Question: Which EC50 [13] does the source give for `Nc1ncnc2c1ncn2[C@@H]1O[C@@H]2/C=C\P(=O)(O)O[C@H]3[C@@H](F)[C@H](n4cnc5c(N)ncnc54)O[C@@H]3COP(=O)(O)O[C@H]2[C@H]1F` here?
Answer: 100 nM

Question: And the EC50 [14]?
Answer: 12000 nM

Question: And the Activity [15]?
Answer: Non-Toxic

Question: And the EC50 [16]?
Answer: 100 nM

Question: What about the EC50 ([1]; Homo sapiens, PBMC) of the same compound?
Answer: 110000 nM

Question: And the ΔTm [17]?
Answer: 11.3 °C

Question: And the EC50 ([2]; Homo sapiens, PBMC)?
Answer: 36000 nM

Question: And the EC50 [18]?
Answer: 1050 nM

Question: What about the EC50 [19] of the same compound?
Answer: 30 nM

Question: What about the ΔTm [20] of the same compound?
Answer: 6 °C

Question: And the Activity [21]?
Answer: Non-Toxic

Question: What about the Activity [22] of the same compound?
Answer: Non-Toxic

Question: What about the Activity [23] of the same compound?
Answer: 3%

Question: What about the EC50 ([6]; Homo sapiens, PBMC) of the same compound?
Answer: 76000 nM

Question: And the EC50 [8]?
Answer: 50100 nM

Question: What about the Activity (4T1 [24]) of the same compound?
Answer: Dose-Dependent Effect

Question: What about the EC50 [9] of the same compound?
Answer: 21500 nM

Question: With `CC1(C(=O)OCOP2(=O)/C=C/[C@H]3O[C@@H](n4cnc5c(N)ncnc54)[C@H](F)[C@@H]3OP(=O)(OCOC(=O)C3(C)CCCCC3)OC[C@H]3O[C@@H](n4cnc5c(N)ncnc54)[C@H](F)[C@@H]3O2)CCCCC1` (stereo in doubt; 14C) [listing 2 of 2 here] as the compound, how does the Activity (4T1 [25]) read?
Answer: Active

Question: And the Activity (4T1 [24])?
Answer: Dose-Dependent Effect
